According to DBAASP:
≈ marks a conversion by molar mass, not a printed value. Where “and” joins values, the source holds several entries; their conditions need not be identical. Equal entries are not always repeated. Each block holds one compound with its values, some of them ahead of it.

Experiments:
Experiment in all cases: ≥ marks a high value that may be exact or a test limit, other limits are often not marked, values filed in µg/mL are converted to µM
[1] = test system: Bacillus subtilis
[2] = test system: Escherichia coli
[3] = test system: Escherichia coli ATCC 25922
[4] = test system: Staphylococcus aureus ATCC 29213
[5] = test system: Acinetobacter baumannii ATCC 19606
[6] = test system: Enterococcus faecalis ATCC 29212
[7] = test system: Staphylococcus aureus
[8] = test system: Pseudomonas aeruginosa
[9] = test system: Candida albicans ATCC 2002
[10] = test system: Pseudomonas aeruginosa ATCC 27853
[11] = test system: Staphylococcus epidermidis
[12] = test system: Staphylococcus aureus ATCC 25923

Structure (SMILES): CC(C)C[C@H](NC(=O)[C@H](CCCCN)NC(=O)CNC(=O)[C@H](CC(C)C)NC(=O)[C@H](CC(C)C)NC(=O)[C@H](C)NC(=O)[C@H](CC(N)=O)NC(=O)[C@H](CC(C)C)NC(=O)[C@H](C)NC(=O)[C@H](CCC(N)=O)NC(=O)CNC(=O)[C@@H](NC(=O)[C@H](Cc1ccccc1)NC(=O)CNC(=O)[C@H](CC(C)C)NC(=O)[C@@H](N)Cc1ccccc1)C(C)C)C(N)=O [FLGFVGQALNALLGKL]
MIC [3]: > 64 µM
MIC [4]: 32 µM (≈ 53.1 µg/mL)
MIC [5]: > 64 µM
MIC [6]: > 64 µM

Structure (SMILES): CC(C)[C@H](NC(=O)[C@H](Cc1c[nH]c2ccccc12)NC(=O)[C@H](CCCCN)NC(=O)[C@@H](N)CCCN=C(N)N)C(=O)N[C@@H](Cc1ccc(O)cc1)C(=O)N[C@@H](Cc1c[nH]c2ccccc12)C(=O)N[C@@H](CCCN=C(N)N)C(=O)N[C@@H](CC(N)=O)C(=O)N[C@@H](CCCN=C(N)N)C(=O)O [RKWVYWRNR]
MIC [3]: 91.7 µM (≈ 125 µg/mL)
MIC [4]: 22.9 µM (≈ 31.3 µg/mL)

Structure (SMILES): CC[C@H](C)[C@H](NC(=O)[C@H](Cc1ccccc1)NC(=O)[C@H](CO)NC(=O)[C@H](CCCCN)NC(=O)[C@H](Cc1c[nH]c2ccccc12)NC(=O)[C@@H](N)CCCCN)C(=O)N[C@@H](CCCCN)C(=O)N[C@@H](CCCCN)C(=O)N[C@@H](C)C(=O)N[C@@H](CCCCN)C(=O)N[C@H](C(=O)N[C@@H](CO)C(=O)N[C@@H](Cc1ccccc1)C(=O)N[C@@H](CC(C)C)C(=O)N[C@@H](Cc1cnc[nH]1)C(=O)N[C@@H](CO)C(=O)N[C@@H](C)C(=O)N[C@@H](CCCCN)C(=O)N[C@@H](CCCCN)C(=O)N[C@@H](Cc1ccccc1)C(N)=O)[C@@H](C)O [KWKSFIKKAKTSFLHSAKKF]
MIC [8]: 10.4 µM (≈ 25 µg/mL)

Structure (SMILES): CC[C@H](C)[C@H](NC(=O)[C@H](CCCN=C(N)N)NC(=O)[C@H](CCC(N)=O)NC(=O)[C@@H](NC(=O)[C@@H](NC(=O)[C@H](CCCN=C(N)N)NC(=O)[C@H](CCCCN)NC(=O)[C@@H](N)Cc1ccccc1)[C@@H](C)CC)C(C)C)C(=O)N[C@@H](CCCCN)C(=O)N[C@@H](CC(=O)O)C(=O)N[C@@H](Cc1cnc[nH]1)C(=O)N[C@@H](CC(C)C)C(=O)N[C@@H](CCCN=C(N)N)C(=O)O [FKRIVQRIKDHLR]
MIC [3]: 10 µM (≈ 17.1 µg/mL)
MIC [4]: > 40 µM

Structure (SMILES): CC(C)C[C@H](NC(=O)[C@H](Cc1ccc(O)cc1)NC(=O)[C@H](CCCCN)NC(=O)[C@H](Cc1c[nH]c2ccccc12)NC(=O)[C@H](Cc1ccccc1)NC(=O)[C@H](CCCCN)NC(=O)[C@H](CCCN=C(N)N)NC(=O)[C@@H](N)Cc1c[nH]c2ccccc12)C(=O)N[C@@H](CCCCN)C(N)=O [WRKFWKYLK]
MIC [3]: 22.9 µM (≈ 31 µg/mL)
MIC [4]: 22.9 µM (≈ 31 µg/mL)
MIC [6]: 185 µM and > 92.3 µM

Structure (SMILES): CC[C@H](C)[C@H](NC(=O)[C@H](Cc1ccccc1)NC(=O)[C@H](CO)NC(=O)[C@H](CCCCN)NC(=O)[C@H](Cc1c[nH]c2ccccc12)NC(=O)[C@@H](N)CCCCN)C(=O)N[C@@H](CCCCN)C(=O)N[C@@H](CCCCN)C(=O)N[C@@H](CC(C)C)C(=O)N[C@H](C(=O)N[C@@H](CO)C(=O)N[C@@H](CCCCN)C(=O)N[C@@H](Cc1ccccc1)C(=O)N[C@@H](CC(C)C)C(=O)N[C@@H](Cc1cnc[nH]1)C(=O)N[C@@H](CO)C(=O)N[C@@H](C)C(=O)N[C@@H](CC(=O)O)C(=O)N[C@@H](CCCCN)C(=O)N[C@@H](Cc1ccccc1)C(N)=O)[C@@H](C)O [KWKSFIKKLTSKFLHSADKF]
MIC [8]: 10.2 µM (≈ 25 µg/mL)

Structure (SMILES): CC[C@H](C)[C@H](NC(=O)[C@@H](NC(=O)[C@@H](NC(=O)[C@@H]1CCCN1C(=O)[C@H](Cc1c[nH]c2ccccc12)NC(=O)[C@H](Cc1ccccc1)NC(=O)[C@H](CCCN=C(N)N)NC(=O)[C@H](CCCCN)NC(=O)[C@@H](NC(=O)[C@@H](N)CCCN=C(N)N)[C@@H](C)CC)C(C)C)C(C)C)C(=O)N[C@@H](CCCN=C(N)N)C(=O)N[C@H](C(=O)N[C@H](C(=O)N[C@H](C(=O)N[C@@H](C)C(=O)NCC(=O)N[C@@H](Cc1ccc(O)cc1)C(=O)N[C@@H](CC(N)=O)C(=O)N[C@@H](CC(C)C)C(=O)O)C(C)C)C(C)C)[C@@H](C)O [RIKRFWPVVIRTVVAGYNL]
MIC [3]: 87.4 µM (≈ 200 µg/mL)
MIC [9]: ≥ 32.8 µM

Structure (SMILES): CC(=O)N[C@@H](CCC(N)=O)C(=O)N[C@@H](C)C(=O)N[C@@H](CCCCN)C(=O)O [QAK]
MIC [3]: 10.9 µM (≈ 4.21 µg/mL)
MIC [4]: 21.7 µM (≈ 8.41 µg/mL)

Structure (SMILES): CC[C@H](C)[C@H](NC(=O)[C@@H]1CCCN1C(=O)[C@H](CC(C)C)NC(=O)[C@@H](N)CC(C)C)C(=O)N[C@H](C(=O)NCC(=O)N[C@@H](CC(N)=O)C(=O)N[C@@H](CC(C)C)C(=O)N[C@@H](CC(C)C)C(=O)N[C@@H](CCCCN)C(=O)N[C@@H](CO)C(=O)N[C@@H](CC(C)C)C(=O)N[C@@H](CC(C)C)C(=O)NCC(=O)N[C@@H](Cc1c[nH]c2ccccc12)C(=O)N[C@@H](CCCCN)C(=O)N[C@@H](CCCN=C(N)N)C(=O)N[C@@H](CCCCN)C(=O)N[C@@H](CCCN=C(N)N)C(=O)N[C@@H](Cc1ccccc1)C(=O)NCC(N)=O)C(C)C [LLPIVGNLLKSLLGWKRKRFG]
MIC [10]: 4 µM and 8 µM
MIC [6]: 5 µM and 12.5 µM

Structure (SMILES): CC(C)C[C@H](NC(=O)[C@H](CC(C)C)NC(=O)[C@H](CCCCN)NC(=O)[C@H](CCCCN)NC(=O)[C@H](CC(C)C)NC(=O)[C@H](CCC(N)=O)NC(=O)[C@H](CCCCN)NC(=O)[C@H](CC(C)C)NC(=O)[C@@H](N)Cc1ccccc1)C(N)=O [FLKQLKKLL]
MIC [3]: 56.6 µM (≈ 63.9 µg/mL)
MIC [12]: 113 µM (≈ 128 µg/mL)
MIC [5]: > 113 µM
MIC [10]: 7.08 µM (≈ 7.99 µg/mL)

Structure (SMILES): CC[C@H](C)[C@H](NC(=O)[C@H](CS)NC(=O)[C@H](CCCN=C(N)N)NC(=O)[C@@H](N)CC(C)C)C(=O)N[C@@H](C)C(=O)N[C@@H](CC(C)C)C(=O)N[C@@H](CCCN=C(N)N)C(=O)N[C@@H](CCCCN)C(=O)N[C@@H](CCCCN)C(N)=O [LRCIALRKK]
MIC [7]: > 58.2 µM
MIC [2]: 20.6 µM (≈ 22.6 µg/mL)

Continued, values first:

MIC [1]: 25 µM (≈ 41 µg/mL)
MIC [2]: > 100 µM
Structure (SMILES): CC[C@H](C)[C@H](NC(C)=O)C(=O)N[C@@H](CC(N)=O)C(=O)N[C@@H](Cc1c[nH]c2ccccc12)C(=O)N[C@@H](CC(C)C)C(=O)N[C@@H](CCCCN)C(=O)N[C@@H](CC(C)C)C(=O)NCC(=O)N[C@@H](CCCCN)C(=O)N[C@@H](CCCCN)C(=O)N[C@@H](CC(C)C)C(=O)N[C@@H](CC(C)C)C(=O)N[C@@H](CO)C(=O)N[C@@H](C)C(=O)N[C@@H](CC(C)C)C(N)=O [INWLKLGKKLLSAL]

MIC [1]: ≥ 100 µM
MIC [2]: > 100 µM
Structure (SMILES): CC[C@H](C)[C@H](N)C(=O)N[C@@H](CC(N)=O)C(=O)N[C@@H](Cc1c[nH]c2ccccc12)C(=O)N[C@@H](CCCCN)C(=O)N[C@@H](CCCCN)C(=O)NCC(=O)N[C@@H](CCCCN)C(=O)N[C@@H](CCC(=O)O)C(=O)N[C@H](C(=O)N[C@@H](CC(C)C)C(=O)N[C@@H](CCCCN)C(=O)N[C@@H](C)C(=O)N[C@@H](CC(C)C)C(N)=O)C(C)C [INWKKGKEVLKAL]

MIC [1]: ≥ 40 µM
MIC [2]: 35 µM (≈ 58.7 µg/mL)
Structure (SMILES): CC[C@H](C)[C@H](N)C(=O)N[C@@H](CC(N)=O)C(=O)N[C@@H](Cc1c[nH]c2ccccc12)C(=O)N[C@@H](CO)C(=O)N[C@@H](CO)C(=O)N[C@H](C(=O)N[C@@H](Cc1ccccc1)C(=O)N[C@@H](CCC(=O)O)C(=O)N[C@@H](CCCCN)C(=O)N[C@H](C(=O)N[C@@H](CCCCN)C(=O)N[C@@H](CC(N)=O)C(=O)N[C@@H](CC(C)C)C(=O)N[C@H](C(N)=O)C(C)C)C(C)C)[C@@H](C)CC [INWSSIFEKVKNLV]

MIC [7]: 9.6 µM (≈ 24.1 µg/mL)
MIC [8]: 23.1 µM (≈ 57.8 µg/mL)
MIC [2]: 2.4 µM (≈ 6.01 µg/mL)
Structure (SMILES): CC[C@H](C)[C@H](NC(=O)CN)C(=O)NCC(=O)N[C@@H](CCCCN)C(=O)N[C@@H](Cc1ccccc1)C(=O)N[C@H](C(=O)N[C@@H](Cc1cnc[nH]1)C(=O)N[C@@H](C)C(=O)N[C@@H](C)C(=O)N[C@@H](CCCCN)C(=O)N[C@@H](CCCCN)C(=O)N[C@@H](Cc1ccccc1)C(=O)NCC(=O)N[C@@H](CCCCN)C(=O)N[C@@H](CC(C)C)C(=O)N[C@@H](Cc1ccccc1)C(=O)N[C@H](C(=O)NCC(=O)N[C@@H](CCC(=O)O)C(=O)N[C@H](C(=O)N[C@@H](CCSC)C(=O)N[C@@H](CC(N)=O)C(=O)N[C@@H](CO)C(N)=O)[C@@H](C)CC)[C@@H](C)CC)[C@@H](C)CC [GIGKFIHAAKKFGKLFIGEIMNS]

MIC [3]: > 64 µM
MIC [7]: 8 µM (≈ 18.3 µg/mL)
MIC [4]: 4 µM (≈ 9.15 µg/mL)
MIC [5]: 32 µM (≈ 73.2 µg/mL)
MIC [6]: 16 µM (≈ 36.6 µg/mL)
Structure (SMILES): CC[C@H](C)[C@H](NC(=O)[C@@H](NC(=O)[C@H](CO)NC(=O)[C@@H]1CCCN1C(=O)[C@@H](NC(=O)[C@@H](NC(=O)[C@H](CO)NC(=O)[C@H](CO)NC(=O)[C@H](CC(C)C)NC(=O)[C@H](C)NC(=O)[C@H](CO)NC(=O)[C@H](CC(C)C)NC(=O)[C@H](C)NC(=O)[C@H](C)NC(=O)CNC(=O)[C@H](CC(C)C)NC(=O)[C@@H](N)CC(C)C)C(C)C)[C@@H](C)CC)C(C)C)C(=O)N[C@@H](CO)C(=O)N[C@@H](Cc1c[nH]c2ccccc12)C(=O)N[C@@H](Cc1ccccc1)C(=O)N[C@@H](CCC(N)=O)C(=O)N[C@@H](CCCCN)C(N)=O [LLGAALSALSSVIPSVISWFQK]

MIC [3]: 13.7 µM and 27.5 µM
MIC [5]: 13.7 µM and 27.5 µM
Structure (SMILES): CC(C)C[C@H](NC(=O)[C@H](CC(C)C)NC(=O)[C@H](CCCCN)NC(=O)[C@H](CCCCN)NC(=O)[C@H](CC(C)C)NC(=O)[C@H](Cc1ccc(O)cc1)NC(=O)[C@H](CCCCN)NC(=O)[C@H](CC(C)C)NC(=O)[C@@H](N)Cc1ccccc1)C(N)=O [FLKYLKKLL]

MIC [11]: ≥ 150 µM
Structure (SMILES): CC[C@H](C)[C@H](NC(=O)[C@H](CO)NC(=O)[C@@H](NC(=O)[C@H](CCCCN)NC(=O)[C@H](Cc1ccccc1)NC(=O)[C@@H]1CCCN1C(=O)[C@@H](N)[C@@H](C)O)[C@@H](C)CC)C(=O)N[C@@H](Cc1cnc[nH]1)C(=O)N[C@@H](CC(C)C)C(=O)NCC(=O)NCC(=O)N[C@@H](Cc1ccc(O)cc1)C(N)=O [TPFKISIHLGGY]
